In article PMC12638379, “An innovative approach to development of new pyrazolylquinolin-2-one hybrids as dual EGFR and BRAF^V600E inhibitors” (Molecular Diversity, 2025):
Read-outs that look alike come from different tables or passages of the source.

Assays:
[1] = MTT cytotoxicity on normal cell line WI-38; conditions: human, WI-38 normal cells, % viability
normal cell line WI-38 = assay: MTT cytotoxicity on normal cell line WI-38
BRAF^V600E = BRAF^V600E (Homo sapiens, UniProt P15056, V600E); assay: BRAF^V600E inhibitory assay (B-Raf (V600E) Kinase Assay); type: biochemical; conditions: read-out: BRAF^V600E inhibition IC50 ± SEM
Chain of BRAF^V600E (P15056 whole entry V600E): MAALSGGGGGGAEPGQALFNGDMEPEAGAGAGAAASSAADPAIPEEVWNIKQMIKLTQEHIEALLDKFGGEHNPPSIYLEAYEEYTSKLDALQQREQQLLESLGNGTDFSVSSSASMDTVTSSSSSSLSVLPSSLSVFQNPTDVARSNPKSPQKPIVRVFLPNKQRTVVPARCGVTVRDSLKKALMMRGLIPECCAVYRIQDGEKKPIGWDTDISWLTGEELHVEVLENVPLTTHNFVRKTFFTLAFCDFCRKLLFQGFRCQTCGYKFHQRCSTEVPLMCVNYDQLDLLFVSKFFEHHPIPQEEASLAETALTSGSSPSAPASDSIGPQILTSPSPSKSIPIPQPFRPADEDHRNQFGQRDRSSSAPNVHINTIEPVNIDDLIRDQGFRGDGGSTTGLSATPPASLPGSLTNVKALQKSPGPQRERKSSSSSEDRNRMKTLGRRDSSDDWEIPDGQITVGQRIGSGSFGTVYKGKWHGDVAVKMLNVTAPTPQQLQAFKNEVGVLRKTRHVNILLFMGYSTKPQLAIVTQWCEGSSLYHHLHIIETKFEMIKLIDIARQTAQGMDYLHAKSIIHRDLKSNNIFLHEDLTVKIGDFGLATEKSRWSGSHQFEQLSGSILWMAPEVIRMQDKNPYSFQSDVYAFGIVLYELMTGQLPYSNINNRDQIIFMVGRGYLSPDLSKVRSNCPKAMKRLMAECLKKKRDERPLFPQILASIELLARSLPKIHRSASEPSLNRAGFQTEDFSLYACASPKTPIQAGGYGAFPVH

[2] = test system: leukemia (MOLT-4) cell line; assay: MTT antiproliferative assay, MOLT-4; type: cell-based, human
Procedure: After 24 h of culture incubation and supernatants discarded.

NCI 60 cancer cell lines = assay: NCI anticancer screening over a panel of 60 cancer cells, single concentration 10 µM; type: cell-based, human; conditions: Homo sapiens, read-out: % Growth Inhibition (GI %)
Outline: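 Primary single-dose screen at 10 µM over the NCI panel of 60 human tumour cell lines (leukemia, CNS, lung, colon, kidney, ovary, breast, prostate). The standard NCI Developmental Therapeutics Program protocol was used.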

Question: With C/C(=N\Nc1ccc(S(N)(=O)=O)cc1)c1cnn(-c2cc(=O)[nH]c3ccc(Cl)cc23)c1C [Compound 4d, (E)-4-(2-(1-(1-(6-chloro-2-oxo-1,2-dihydroquinolin-4-yl)-5-methyl-1H-pyrazol-4-yl)ethylidene)hydrazineyl)benzenesulfonamide] as the compound, how does the viability at 24 h, 0.4 µM ([1]; WI38, 0.4uM (log conc. -0.41)) read?
Answer: The viability at 24 h, 0.4 µM was 80.9%.

Question: What about the viability at 24 h, 1.6 µM ([1]; WI38, 1.6uM (log conc. 0.19)) of the same compound?
Answer: Its viability at 24 h, 1.6 µM is 73.3%.

Question: What about the viability at 24 h, 6.3 µM ([1]; WI38, 6.3uM (log conc. 0.8)) of the same compound?
Answer: Its viability at 24 h, 6.3 µM is 63.5%.

Question: And the viability at 24 h, 25 µM ([1]; WI38, 25uM (log conc. 1.4))?
Answer: Its viability at 24 h, 25 µM is 56.2%.

Question: And the viability at 24 h, 100 µM ([1]; WI38, 100uM (log conc. 2))?
Answer: The viability at 24 h, 100 µM was 46.8%.

Question: What about the IC50 (normal cell line WI-38; Homo sapiens, read-out: Antiproliferative activity IC50 ± SEM) of the same compound?
Answer: Its IC50 is 62.5 ± 2.49 µM.

Question: What about the “% viability” value (normal cell line WI-38; WI38, 0.4uM (log conc. -0.41), listed as Ws4, 0.4 µM) of the same compound?
Answer: The value was 80.87%.

Question: And the “% viability” value (normal cell line WI-38; WI38, 1.6uM (log conc. 0.19), listed as Ws4, 1.6 µM)?
Answer: The value was 73.32%.

Question: What about the “% viability” value (normal cell line WI-38; WI38, 6.3uM (log conc. 0.8), listed as Ws4, 6.3 µM) of the same compound?
Answer: The value was 63.52%.

Question: What about the “% viability” value (normal cell line WI-38; WI38, 25uM (log conc. 1.4), listed as Ws4, 25 µM) of the same compound?
Answer: Its value is 56.21%.

Question: And the “% viability” value (normal cell line WI-38; WI38, 100uM (log conc. 2), listed as Ws4, 100 µM)?
Answer: The value was 46.82%.

Question: What about the IC50 (BRAF^V600E) of the same compound?
Answer: Its IC50 is 0.249 ± 0.01 µM.

Question: What about the viability at 0.4 µM ([2]; Homo sapiens, MOLT-4, MOLT-4, MTT, 0.4uM) of the same compound?
Answer: The viability at 0.4 µM was 69.9%.

Question: What about the viability at 1.6 µM ([2]; Homo sapiens, MOLT-4, MOLT-4, MTT, 1.6uM) of the same compound?
Answer: The viability at 1.6 µM was 62.7%.

Question: And the viability at 6.3 µM ([2]; Homo sapiens, MOLT-4, MOLT-4, MTT, 6.3uM)?
Answer: The viability at 6.3 µM was 51.6%.

Question: And the viability at 25 µM ([2]; Homo sapiens, MOLT-4, MOLT-4, MTT, 25uM)?
Answer: The viability at 25 µM was 40.9%.

Question: What about the viability at 100 µM ([2]; Homo sapiens, MOLT-4, MOLT-4, MTT, 100uM) of the same compound?
Answer: Its viability at 100 µM is 30.2%.

Question: And the IC50 ([2]; Homo sapiens, MOLT-4, MTT, read-out: Antiproliferative activity IC50 ± SEM, MOLT-4)?
Answer: The IC50 was 7.24 ± 0.29 µM.

Question: What about the “% viability” value ([2]; MOLT-4, MTT, 0.4uM, listed as Ws4, 0.4 µM) of the same compound?
Answer: Its value is 69.89%.

Question: What about the “% viability” value ([2]; MOLT-4, MTT, 1.6uM, listed as Ws4, 1.6 µM) of the same compound?
Answer: The value was 62.75%.

Question: What about the “% viability” value ([2]; MOLT-4, MTT, 25uM, listed as Ws4, 25 µM) of the same compound?
Answer: Its value is 40.91%.

Question: And the “% viability” value ([2]; MOLT-4, MTT, 100uM, listed as Ws4, 100 µM)?
Answer: The value was 30.23%.

Question: And the inhibition at 10 µM (NCI 60 cancer cell lines; 786-0, Renal cancer 786-0, 10 μM)?
Answer: The inhibition at 10 µM was 14.4%.

Question: What about the inhibition at 10 µM (NCI 60 cancer cell lines; A498, Renal cancer A498, 10 μM) of the same compound?
Answer: The inhibition at 10 µM was less than 5%.

Question: And the inhibition at 10 µM (NCI 60 cancer cell lines; A549, Non-small cell lung cancer A549/ATCC, 10 μM)?
Answer: The inhibition at 10 µM was less than 5%.

Question: What about the inhibition at 10 µM (NCI 60 cancer cell lines; ACHN, Renal cancer ACHN, 10 μM) of the same compound?
Answer: Its inhibition at 10 µM is 14.1%.

Question: And the inhibition at 10 µM (NCI 60 cancer cell lines; BT-549, Breast cancer BT-549, 10 μM)?
Answer: The inhibition at 10 µM was 56.3%.

Question: What about the inhibition at 10 µM (NCI 60 cancer cell lines; CAKI-1, Renal cancer CAKI-1, 10 μM) of the same compound?
Answer: Its inhibition at 10 µM is 21.5%.

Question: And the inhibition at 10 µM (NCI 60 cancer cell lines; CCRF-CEM, Leukemia CCRF-CEM, 10 μM)?
Answer: The inhibition at 10 µM was 52.2%.

Question: What about the inhibition at 10 µM (NCI 60 cancer cell lines; COLO 205, Colon cancer COLO 205, 10 μM) of the same compound?
Answer: The inhibition at 10 µM was less than 5%.

Question: And the inhibition at 10 µM (NCI 60 cancer cell lines; DU-145, Prostate cancer DU-145, 10 μM)?
Answer: Its inhibition at 10 µM is 10.9%.

Question: And the inhibition at 10 µM (NCI 60 cancer cell lines; EKVX, Non-small cell lung cancer EKVX, 10 μM)?
Answer: The inhibition at 10 µM was 10.1%.

Question: What about the inhibition at 10 µM (NCI 60 cancer cell lines; HCC 2998, Colon cancer HCC-2998, 10 μM) of the same compound?
Answer: Its inhibition at 10 µM is less than 5%.

Question: And the inhibition at 10 µM (NCI 60 cancer cell lines; HCT-15, Colon cancer HCT-15, 10 μM)?
Answer: Its inhibition at 10 µM is less than 5%.

Question: What about the inhibition at 10 µM (NCI 60 cancer cell lines; HCT-116, Colon cancer HCT-116, 10 μM) of the same compound?
Answer: Its inhibition at 10 µM is 19.1%.

Question: What about the inhibition at 10 µM (NCI 60 cancer cell lines; HL-60, Leukemia HL-60(TB), 10 μM) of the same compound?
Answer: Its inhibition at 10 µM is less than 5%.

Question: And the inhibition at 10 µM (NCI 60 cancer cell lines; HOP-62, Non-small cell lung cancer HOP-62, 10 μM)?
Answer: Its inhibition at 10 µM is 24.6%.

Question: And the inhibition at 10 µM (NCI 60 cancer cell lines; HOP-92, Non-small cell lung cancer HOP-92, 10 μM)?
Answer: Its inhibition at 10 µM is less than 5%.

Question: And the inhibition at 10 µM (NCI 60 cancer cell lines; HT-29, Colon cancer HT29, 10 μM)?
Answer: Its inhibition at 10 µM is less than 5%.

Question: And the inhibition at 10 µM (NCI 60 cancer cell lines; Hs-578T, Breast cancer HS 578T, 10 μM)?
Answer: Its inhibition at 10 µM is 36.3%.

Question: What about the inhibition at 10 µM (NCI 60 cancer cell lines; IGROV-1, Ovarian cancer IGROV1, 10 μM) of the same compound?
Answer: The inhibition at 10 µM was 14.6%.

Question: What about the inhibition at 10 µM (NCI 60 cancer cell lines; K562, Leukemia K-562, 10 μM) of the same compound?
Answer: Its inhibition at 10 µM is 29.7%.

Question: And the inhibition at 10 µM (NCI 60 cancer cell lines; KM12, Colon cancer KM12, 10 μM)?
Answer: The inhibition at 10 µM was 16.7%.

Question: And the inhibition at 10 µM (NCI 60 cancer cell lines; LOX IMVI, Melanoma LOX IMVI, 10 μM)?
Answer: The inhibition at 10 µM was 29%.

Question: What about the inhibition at 10 µM (NCI 60 cancer cell lines; Leukemia SR, 10 μM) of the same compound?
Answer: The inhibition at 10 µM was 71.6%.

Question: What about the inhibition at 10 µM (NCI 60 cancer cell lines; MCF7, Breast cancer MCF7, 10 μM) of the same compound?
Answer: The inhibition at 10 µM was 36.3%.

Question: And the inhibition at 10 µM (NCI 60 cancer cell lines; MDA-MB-231, Breast cancer MDA-MB-231/ATCC, 10 μM)?
Answer: Its inhibition at 10 µM is 51.7%.

Question: What about the inhibition at 10 µM (NCI 60 cancer cell lines; MDA-MB-435, Melanoma MDA-MB-435, 10 μM) of the same compound?
Answer: The inhibition at 10 µM was 27.3%.

Question: And the inhibition at 10 µM (NCI 60 cancer cell lines; MDA-MB-468, Breast cancer MDA-MB-468, 10 μM)?
Answer: Its inhibition at 10 µM is 47.2%.
